Key:
[1] = molecular target: T1, RIPK1 (Homo sapiens, UniProt Q13546); test: Immunoblotting of TNFα induced phospho-RIPK1 (ser 166) levels; type: cell-based; settings: HMC3 cells; Z-VAD-FMK, human TNFα 20 ng/ml, SM-164 100 nM; 7 h, serum free media; read-out: Cell-base RIPK1 activity: phspho-RIPK1 (Ser166)
T1 construct: endogenous in cells; host or cells: HT-29 (KCLB 30038)
T1 sequence (Q13546 1-671): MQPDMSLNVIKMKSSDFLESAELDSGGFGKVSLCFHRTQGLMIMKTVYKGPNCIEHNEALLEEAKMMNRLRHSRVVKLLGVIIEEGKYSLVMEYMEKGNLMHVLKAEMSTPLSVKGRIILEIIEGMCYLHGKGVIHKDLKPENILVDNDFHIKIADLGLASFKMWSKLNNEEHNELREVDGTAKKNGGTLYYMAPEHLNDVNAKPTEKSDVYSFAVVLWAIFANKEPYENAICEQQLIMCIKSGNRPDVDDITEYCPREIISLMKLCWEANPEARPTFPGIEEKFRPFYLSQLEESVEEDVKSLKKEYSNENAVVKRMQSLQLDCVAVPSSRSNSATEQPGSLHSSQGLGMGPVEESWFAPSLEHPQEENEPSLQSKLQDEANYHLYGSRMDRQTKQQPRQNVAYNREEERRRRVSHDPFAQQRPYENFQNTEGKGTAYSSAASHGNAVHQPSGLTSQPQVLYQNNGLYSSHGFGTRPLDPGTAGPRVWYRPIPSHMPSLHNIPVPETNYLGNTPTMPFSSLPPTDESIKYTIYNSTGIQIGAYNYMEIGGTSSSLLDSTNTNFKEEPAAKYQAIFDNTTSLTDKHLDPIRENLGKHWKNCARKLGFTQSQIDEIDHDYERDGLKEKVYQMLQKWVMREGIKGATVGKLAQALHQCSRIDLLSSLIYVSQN
Method in brief: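 HMC3 human microglial cells were pretreated 30 min with Z-VAD-FMK […]. They were then given TNFα 20 ng/ml, SM-164 100 nM and inhibitor (0.1, 1, 10 nM) for 7 h in serum-free medium. BCA-normalised lysates were immunoblotted for phospho-RIPK1 Ser166.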

[2] = molecular target: T1, RIPK1; test: Cell-based necroptosis assay for RIPK1 activity (cell viability by CCK-8); settings: HT-29 cells; Z-VAD-FMK 20 μM, human TNFα 10 ng/ml, SM-164 100 nM; 24 h; read-out: Cell-base RIPK1 activity: Necroptosis
Method in brief: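 HT-29 cells pretreated 30 min with 20 μM Z-VAD-FMK, then necroptosis induced with human TNFα 10 ng/ml plus SM-164 100 nM alongside RIPK1 inhibitor (0.0001–10 uM) for 24 h. Viability read by CCK-8.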

| SMILES | IC50 [1] | IC50 [2] |
| --- | --- | --- |
| Cc1nnc(COc2ccc3c(c2)N(C)C(=O)[C@@H](NC(=O)n2cc(Cc4cccc(F)c4)cn2)CO3)o1 [Example 64, (S)-4-(3-fluorobenzyl)-N-(5-methyl-7-((5-methyl-1,3,4-oxadiazol-2-yl)methoxy)-4-oxo-2,3,4,5-tetrahydrobenzo[b][1,4]oxazepin-3-yl)-1H-pyrazole-1-carboxamide] | 10 to 50 nM | 10 to 50 nM |
| CN1C(=O)[C@@H](NC(=O)n2cc(Cc3cccc(F)c3)cn2)COc2ccc(C(=O)N3CCC(F)(F)CC3)cc21 [Example 3] | 10 to 50 nM | 10 to 50 nM |
| COC(=O)c1csc(COc2ccc3c(c2)N(C)C(=O)[C@@H](NC(=O)n2cc(Cc4cccc(F)c4)cn2)CO3)n1 [Example 65, Methyl (S)-2-(((3-(4-(3-fluorobenzyl)-1H-pyrazole-1-carboxamido)-5-methyl-4-oxo-2,3,4,5-tetrahydrobenzo[b][1,4]oxazepin-7-yl)oxy)methyl)thiazole-4-carboxylate] | < 10 nM | < 10 nM |
| CN1C(=O)[C@@H](NC(=O)n2cc(Cc3cccc(F)c3)cn2)COc2ccc(OCC(O)c3ccccn3)cc21 (stereo partly drawn) [Example 69, 4-(3-fluorobenzyl)-N-((3S)-7-(2-hydroxy-2-(pyridin-2-yl)ethoxy)-5-methyl-4-oxo-2,3,4,5-tetrahydrobenzo[b][1,4]oxazepin-3-yl)-1H-pyrazole-1-carboxamide] | < 10 nM | < 10 nM |
| CN1C(=O)[C@@H](NC(=O)n2cc(Cc3cccc(F)c3)cn2)COc2ccc(OCC(=O)N3CCC(F)(F)C3)cc21 [Example 45, (S)—N-(7-(2-(3,3-difluoropyrrolidin-1-yl)-2-oxoethoxy)-5-methyl-4-oxo-2,3,4,5-tetrahydrobenzo[b][1,4]oxazepin-3-yl)-4-(3-fluorobenzyl)-1H-pyrazole-1-carboxamide] | < 10 nM | < 10 nM |
| CN1C(=O)[C@@H](NC(=O)n2cc(Cc3cccc(F)c3)cn2)COc2ccc(C(=O)N3CCC(C)(O)CC3)cc21 [Example 5, (S)-4-(3-fluorobenzyl)-N-(7-(4-hydroxy-4-methylpiperidine-1-carbonyl)-5-methyl-4-oxo-2,3,4,5-tetrahydrobenzo[b][1,4]oxazepin-3-yl)-1H-pyrazole-1-carboxamide] | < 10 nM | < 10 nM |
| CN1C(=O)[C@@H](NC(=O)n2cc(Cc3cccc(F)c3)cn2)COc2ccc(C(=O)N3CCC(C(C)(C)O)CC3)cc21 [Example 6, (S)-4-(3-fluorobenzyl)-N-(7-(4-(2-hydroxypropan-2-yl)piperidine-1-carbonyl)-5-methyl-4-oxo-2,3,4,5-tetrahydrobenzo[b][1,4]oxazepin-3-yl)-1H-pyrazole-1-carboxamide] | < 10 nM | < 10 nM |
| CN1C(=O)[C@@H](NC(=O)n2cc(Cc3cccc(F)c3)cn2)COc2ccc(OC3CCC(C)(C)CC3)cc21 [Example 31, (S)—N-(7-((4,4-dimethylcyclohexyl)oxy)-5-methyl-4-oxo-2,3,4,5-tetrahydrobenzo[b][1,4]oxazepin-3-yl)-4-(3-fluorobenzyl)-1H-pyrazole-1-carboxamide] | < 10 nM | < 10 nM |
| CN1C(=O)[C@@H](NC(=O)n2cc(Cc3cccc(F)c3)cn2)COc2ccc(OC(C)(C)C(=O)N3CCC(C)(O)CC3)cc21 [Example 42, (S)-4-(3-fluorobenzyl)-N-(7-((1-(4-hydroxy-4-methylpiperidin-1-yl)-2-methyl-1-oxopropan-2-yl)oxy)-5-methyl-4-oxo-2,3,4,5-tetrahydrobenzo[b][1,4]oxazepin-3-yl)-1H-pyrazole-1-carboxamide] | 10 to 50 nM | 10 to 50 nM |
| CN1C(=O)[C@@H](NC(=O)n2cc(Cc3cccc(F)c3)cn2)COc2ccc(OCC(C)(C)O)cc21 [Example 20, (S)-4-(3-fluorobenzyl)-N-(7-(2-hydroxy-2-methylpropoxy)-5-methyl-4-oxo-2,3,4,5-tetrahydrobenzo[b][1,4]oxazepin-3-yl)-1H-pyrazole-1-carboxamide] | < 10 nM | < 10 nM |

Now from value to molecule, other results behind:

| IC50 [1] | SMILES | IC50 [2] |
| --- | --- | --- |
| < 10 nM | CN1C(=O)[C@@H](NC(=O)n2cc(Cc3cccc(F)c3)cn2)COc2ccc(OC3CCCCC3)cc21 [Example 30, (S)—N-(7-(cyclohexyloxy)-5-methyl-4-oxo-2,3,4,5-tetrahydrobenzo[b][1,4]oxazepin-3-yl)-4-(3-fluorobenzyl)-1H-pyrazole-1-carboxamide] | < 10 nM |
| < 10 nM | CN1C(=O)[C@@H](NC(=O)n2cc(Cc3cccc(F)c3)cn2)COc2ccc(OCC#CC3(O)CCC3)cc21 [Example 24, (S)-4-(3-fluorobenzyl)-N-(7-((3-(1-hydroxycyclobutyl)prop-2-yn-1-yl)oxy)-5-methyl-4-oxo-2,3,4,5-tetrahydrobenzo[b][1,4]oxazepin-3-yl)-1H-pyrazole-1-carboxamide] | < 10 nM |
| < 10 nM | CN1C(=O)[C@@H](NC(=O)n2cc(Cc3cccc(F)c3)cn2)COc2ccc(OCc3nccn3C)cc21 [Example 63, (S)-4-(3-fluorobenzyl)-N-(5-methyl-7-((1-methyl-1H-imidazol-2-yl)methoxy)-4-oxo-2,3,4,5-tetrahydrobenzo[b][1,4]oxazepin-3-yl)-1H-pyrazole-1-carboxamide] | < 10 nM |
| < 10 nM | CN1C(=O)[C@@H](NC(=O)n2cc(Cc3cccc(F)c3)cn2)COc2ccc(OCC#CC(C)(C)O)cc21 [Example 22, (S)-4-(3-fluorobenzyl)-N-(7-((4-hydroxy-4-methylpent-2-yn-1-yl)oxy)-5-methyl-4-oxo-2,3,4,5-tetrahydrobenzo[b][1,4]oxazepin-3-yl)-1H-pyrazole-1-carboxamide] | < 10 nM |
| < 10 nM | CN1C(=O)[C@@H](NC(=O)n2cc(Cc3cccc(F)c3)cn2)COc2ccc(OCc3ccc(F)cc3)cc21 [Example 57, (S)-4-(3-fluorobenzyl)-N-(7-((4-fluorobenzyl)oxy)-5-methyl-4-oxo-2,3,4,5-tetrahydrobenzo[b][1,4]oxazepin-3-yl)-1H-pyrazole-1-carboxamide] | < 10 nM |
| < 10 nM | CN1C(=O)[C@@H](NC(=O)n2cc(Cc3cccc(F)c3)cn2)COc2ccc(OCC(=O)N3CCC(F)(F)CC3)cc21 [Example 38, (S)—N-(7-(2-(4,4-difluoropiperidin-1-yl)-2-oxoethoxy)-5-methyl-4-oxo-2,3,4,5-tetrahydrobenzo[b][1,4]oxazepin-3-yl)-4-(3-fluorobenzyl)-1H-pyrazole-1-carboxamide] | < 10 nM |
| < 10 nM | CN1C(=O)[C@@H](NC(=O)n2cc(Cc3cccc(F)c3)cn2)COc2ccc(OCC(=O)N3CCCCC3)cc21 [Example 36, (S)-4-(3-fluorobenzyl)-N-(5-methyl-4-oxo-7-(2-oxo-2-(piperidin-1-yl)ethoxy)-2,3,4,5-tetrahydrobenzo[b][1,4]oxazepin-3-yl)-1H-pyrazole-1-carboxamide] | < 10 nM |
| < 10 nM | CN1C(=O)[C@@H](NC(=O)n2cc(Cc3cccc(F)c3)cn2)COc2ccc(OCC(=O)NC3CC3)cc21 [Example 51, (S)—N-(7-(2-(cyclopropylamino)-2-oxoethoxy)-5-methyl-4-oxo-2,3,4,5-tetrahydrobenzo[b][1,4]oxazepin-3-yl)-4-(3-fluorobenzyl)-1H-pyrazole-1-carboxamide] | < 10 nM |
| < 10 nM | CN1C(=O)[C@@H](NC(=O)n2cc(Cc3cccc(F)c3)cn2)COc2ccc(OCc3cnc(Cl)nc3)cc21 [Example 62, (S)—N-(7-((2-chloropyrimidin-5-yl)methoxy)-5-methyl-4-oxo-2,3,4,5-tetrahydrobenzo[b][1,4]oxazepin-3-yl)-4-(3-fluorobenzyl)-1H-pyrazole-1-carboxamide] | < 10 nM |

Source: US20240083892A1 (BISICHEM CO., LTD., priority 2021, published 2024)
